Measured values published in article PMC12692955, “Acetylbinankadsurin A Decreases Macrophage Glycolysis and Pro-Inflammatory Phenotype Polarization via Inhibiting HIF-1α to Alleviate Hepatic Fibrosis in Mice” (Molecules, 2025).

Molecular target: T1, HIF-1α (Homo sapiens, UniProt Q16665)
T1 construct: gene HIF1A; recombinant protein HIF-1α (MCE #HY-P74888)
Test: SPR (Biacore T200, HIF-1α amine-coupled to CM5 chip)
Type: binding

T1 sequence (Q16665 whole entry): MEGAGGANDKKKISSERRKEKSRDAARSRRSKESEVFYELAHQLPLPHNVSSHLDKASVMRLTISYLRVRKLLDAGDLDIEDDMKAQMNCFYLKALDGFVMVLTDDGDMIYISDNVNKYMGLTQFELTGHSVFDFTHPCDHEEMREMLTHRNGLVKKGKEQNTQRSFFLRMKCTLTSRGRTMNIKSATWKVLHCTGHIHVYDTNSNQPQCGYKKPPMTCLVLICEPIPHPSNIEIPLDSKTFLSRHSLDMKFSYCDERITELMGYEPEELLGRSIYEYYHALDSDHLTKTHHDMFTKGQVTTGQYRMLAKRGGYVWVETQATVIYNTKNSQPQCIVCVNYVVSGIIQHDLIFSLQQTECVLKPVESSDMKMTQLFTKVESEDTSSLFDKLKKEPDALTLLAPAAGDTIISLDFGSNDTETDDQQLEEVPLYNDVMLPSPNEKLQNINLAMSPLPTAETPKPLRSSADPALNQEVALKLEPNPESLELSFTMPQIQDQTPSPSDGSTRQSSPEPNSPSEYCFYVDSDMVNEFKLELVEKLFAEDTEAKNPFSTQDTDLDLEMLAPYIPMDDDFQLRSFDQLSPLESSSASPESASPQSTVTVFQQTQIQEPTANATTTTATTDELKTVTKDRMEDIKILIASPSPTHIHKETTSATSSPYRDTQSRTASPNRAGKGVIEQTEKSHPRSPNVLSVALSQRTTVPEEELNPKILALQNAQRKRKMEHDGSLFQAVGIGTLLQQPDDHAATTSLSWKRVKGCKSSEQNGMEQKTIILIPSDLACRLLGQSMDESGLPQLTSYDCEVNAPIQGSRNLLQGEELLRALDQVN

Kd: 13 µM
SMILES: COc1cc2c(c(O)c1OC)-c1c(cc3c(c1OC)OCO3)[C@H](OC(C)=O)[C@H](C)[C@H](C)C2 [ACBA, Acetylbinankadsurin A]
